Consider 2 compounds from PMC11672299, “Conjugation of Polycationic Peptides Extends the Efficacy Spectrum of β‐Lactam Antibiotics” (Advanced Science, 2024).

Experiment [1] relates to B. subtilis DSM 10. Kind of experiment: microbe, parasite or virus in culture. It counts as cell-based. The essentials:
(§1)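 Twofold dilutions in cation-adjusted MHB II, inoculum 5 × 10^5 CFU mL^−1. Combination tests used clavulanic acid at 2 mg L^−1 or avibactam at 4 mg L^−1, fixed per EUCAST.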

Experiment [2] relates to E. casseliflavus ATCC 700327. Kind of experiment: microbe, parasite or virus in culture. It counts as cell-based. The method in brief: as §1
Experiment [3] has as its system E. coli Tü20‐025 (clinical isolate). Kind of experiment: microbe, parasite or virus in culture. It counts as cell-based. The essentials: as §1
The test system of experiment [4] is E. faecalis ATCC 29212. As to the kind of experiment: microbe, parasite or virus in culture. Type of experiment: cell-based. The essentials: as §1
Experiment [5] concerns K. pneumoniae Tü20‐036 (clinical isolate). As to the kind of experiment: microbe, parasite or virus in culture. Type of experiment: cell-based. The essentials:
as §1

Experiment [6] has as its system S. aureus ATCC 25923 (MSSA). Kind of experiment: microbe, parasite or virus in culture. Type of experiment: cell-based. The method in brief:
as §1

Experiment [7] relates to S. aureus NCTC 10442 (MRSA). Kind of experiment: microbe, parasite or virus in culture. Type of experiment: cell-based. The essentials:
as §1

Experiment [8] deals with S. saprophyticus ATCC 15305. As to the kind of experiment: microbe, parasite or virus in culture. Type of experiment: cell-based. The method in brief: as §1
In experiment [9] the test system is CTZ‐resistant P. aeruginosa (n = 2). Type of experiment: cell-based. As to the method: The minimum inhibitory concentration (MIC) of the β‐lactam–peptide conjugates was determined by broth microdilution as previously described.^[ [17] ^] Briefly, in cation‐adjusted MHB II medium, a twofold serial dilution of the compounds was prepared in 96‐well round‐bottom polystyrene or polypropylene microtiter plates with each well containing 50 µL. The plates were inoculated with 50 µL bacterial suspension and the final inoculum, in a total volume of 100 µL, contained 5 × 10^5 CFU mL^−1. The microplates were incubated for 20 h at 37 ± 1 °C. The lowest concentration preventing visible bacterial growth was considered the MIC value. For susceptibility testing of combinations of β‐lactamase‐inhibitors with either a β‐lactam antibiotic or a β‐lactam–peptide conjugate, fixed concentrations of the inhibitors according to the EUCAST (European Committee on Antimicrobial Susceptibility Testing) guidelines (clavulanic acid = 2 mg L^−1, avibactam = 4 mg L^−1) were used.

For experiment [10], the target named is PBP1A/B (Bacillus subtilis, UniProt P39793). Kind of experiment: Gel‐based PBP affinity assay (Bocillin FL competition). Type of experiment: binding. To be noted: B. subtilis membrane fractions, competition with Bocillin FL penicillin. Here is the method: (§2) B. subtilis DSM 10 and E. faecalis ATCC 51 299 (equal to DSM 12 956) membrane protein fractions were extracted according to the protocol of Dean et al. with minor modifications.^[ [34] ^] From a growing overnight bacterial culture, 3 L of LB (Luria‐Bertani) medium or TSB (tryptic soy broth) were inoculated with B. subtilis DSM 10 and E. faecalis ATCC 51 299, respectively, to obtain an OD600 = 0.3. The cultures were grown to an OD600 = 0.6–0.8 while shaking at 37 °C and cells were harvested by centrifugation at 4000 g for 30 min at 4 °C. The resulting pellet was washed twice with pre‐cooled PBS and resuspended in 30 mL of ice‐cooled PBS. The suspension was sonicated on ice (10 cycles of 30 s at 50% power for B. subtilis; 12 cycles of 30 s at 80% power for E. faecalis; 2 min intervals between cycles) using an Omni Ruptor 4000 ultrasonic homogenizer (Omni International, Kennesaw, GA, USA). Afterwards, the suspension was centrifuged at 7000 g for 10 min at 4 °C. The clear supernatant was transferred into a 50 mL polypropylene tube and centrifuged in a Beckman Coulter centrifuge equipped with a JA‐20 fixed‐angle rotor (Beckman Coulter, Krefeld, Germany) at 50 000 g for 1 h at 4 °C. The resulting pellet was washed with ice‐cold PBS and centrifuged a second time. The pellet was resuspended in 2 mL PBS and aliquots were stored at −80 °C. The protein content was determined using Bradford reagent (VWR International, Darmstadt, Germany) and Pierce BCA (bicinchoninic acid) protein assay kits (Thermo Fisher Scientific, Waltham, MA, USA) for membrane fractions of B. subtilis and E. faecalis, respectively.
(§3) Each dilution was combined with B. subtilis (30 µg) or E. faecalis (15 µg) extracted membrane fractions. As reference samples, membrane fractions incubated with only PBS were prepared. Reaction mixtures were incubated for 20 min at 37 °C while shaking at 400 rpm. Next, Bocillin FL penicillin (Thermo Fisher Scientific, Waltham, MA, USA) was added to obtain a final concentration of 20 µM in the mixture. Samples were incubated for 30 min at 37 °C while shaking at 400 rpm. To denature the samples, 4× Laemmli sample buffer (Bio‐Rad Laboratories, Feldkirchen, Germany) was added, and the samples incubated for 10 min at 70 °C. Afterwards, the samples were centrifuged for 5 min at 13 000 rpm. Samples were separated by SDS‐PAGE using a 10% Tris‐glycine gel for 100 min at 180 V. The bands were visualized using a Typhoon FLA 9500 imager (GE Healthcare, Chicago, IL, USA) with excitation at 473 nm. The gel images were analyzed using ImageJ software. Brightness and contrast were adjusted to improve the signal‐to‐noise ratio and the background signal was subtracted over the whole image. Next, integrated density values of the gel bands were measured and Bocillin FL penicillin labeling of each PBP in antibiotic‐treated samples were set in proportion to the reference sample. IC50 values were calculated with GraphPad Prism software (version 8.0.1) using inhibitor versus normalized response variable slope and least‐squares fit. […] The mean was calculated using the IC50 values of at least two independent assays for each antibiotic.

Experiment [11] concerns the target T1, PBP2B (Bacillus subtilis, UniProt Q07868).
T1 construct: endogenous in cells; host or cells: B. subtilis DSM 10, extracted membrane protein fraction
The description is as above. It counts as binding. Conditions: B. subtilis membrane fractions, competition with Bocillin FL penicillin. Here is the method: as §2, §3

Experiment [12] has as its target T2, PBP4 (Bacillus subtilis, UniProt P40750).
T2 construct: endogenous in cells; host or cells: B. subtilis DSM 10, extracted membrane protein fraction
The description is as above. Type of experiment: binding. To be noted: B. subtilis membrane fractions, competition with Bocillin FL penicillin. As to the method:
as §2, §3

Like-named read-outs stand apart in the source and are kept apart here.

PBP1A/B, sequence (P39793 1-662): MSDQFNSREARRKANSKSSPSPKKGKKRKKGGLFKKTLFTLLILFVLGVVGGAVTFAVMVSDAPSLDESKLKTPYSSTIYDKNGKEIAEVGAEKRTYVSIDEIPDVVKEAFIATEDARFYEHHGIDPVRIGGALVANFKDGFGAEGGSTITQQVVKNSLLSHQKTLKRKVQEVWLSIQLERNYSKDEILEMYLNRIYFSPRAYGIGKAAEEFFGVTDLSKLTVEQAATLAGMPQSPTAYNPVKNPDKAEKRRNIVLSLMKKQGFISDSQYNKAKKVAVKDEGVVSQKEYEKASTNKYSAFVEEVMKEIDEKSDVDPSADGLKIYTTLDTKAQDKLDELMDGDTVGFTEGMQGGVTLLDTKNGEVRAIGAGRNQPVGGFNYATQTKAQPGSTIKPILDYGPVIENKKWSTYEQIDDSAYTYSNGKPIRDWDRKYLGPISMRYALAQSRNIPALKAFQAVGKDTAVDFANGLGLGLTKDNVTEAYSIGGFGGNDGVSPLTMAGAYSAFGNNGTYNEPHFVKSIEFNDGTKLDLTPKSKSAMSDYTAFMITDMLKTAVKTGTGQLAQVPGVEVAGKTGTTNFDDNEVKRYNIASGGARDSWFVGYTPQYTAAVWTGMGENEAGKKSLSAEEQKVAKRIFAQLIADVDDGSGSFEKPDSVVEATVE
T1 sequence (Q07868 whole entry): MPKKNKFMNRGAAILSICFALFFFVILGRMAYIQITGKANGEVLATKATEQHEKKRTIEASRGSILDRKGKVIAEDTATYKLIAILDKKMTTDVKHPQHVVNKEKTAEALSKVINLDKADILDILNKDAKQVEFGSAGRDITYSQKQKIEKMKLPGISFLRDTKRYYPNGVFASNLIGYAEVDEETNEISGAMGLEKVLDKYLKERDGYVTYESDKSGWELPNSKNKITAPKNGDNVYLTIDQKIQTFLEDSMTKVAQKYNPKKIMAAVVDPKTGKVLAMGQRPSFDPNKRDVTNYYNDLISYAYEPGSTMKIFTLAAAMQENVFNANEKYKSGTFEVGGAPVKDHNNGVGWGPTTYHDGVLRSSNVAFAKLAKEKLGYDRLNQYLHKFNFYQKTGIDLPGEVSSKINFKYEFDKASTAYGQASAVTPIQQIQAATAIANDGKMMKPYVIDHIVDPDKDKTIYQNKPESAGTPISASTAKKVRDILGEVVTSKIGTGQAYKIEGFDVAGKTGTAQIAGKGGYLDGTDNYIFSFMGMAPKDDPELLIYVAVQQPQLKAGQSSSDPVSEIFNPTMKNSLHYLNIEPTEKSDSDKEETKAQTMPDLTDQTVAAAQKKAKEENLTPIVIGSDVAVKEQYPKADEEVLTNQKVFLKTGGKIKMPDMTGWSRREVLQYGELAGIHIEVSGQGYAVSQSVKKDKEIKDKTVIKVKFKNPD
T2 sequence (P40750 22-624): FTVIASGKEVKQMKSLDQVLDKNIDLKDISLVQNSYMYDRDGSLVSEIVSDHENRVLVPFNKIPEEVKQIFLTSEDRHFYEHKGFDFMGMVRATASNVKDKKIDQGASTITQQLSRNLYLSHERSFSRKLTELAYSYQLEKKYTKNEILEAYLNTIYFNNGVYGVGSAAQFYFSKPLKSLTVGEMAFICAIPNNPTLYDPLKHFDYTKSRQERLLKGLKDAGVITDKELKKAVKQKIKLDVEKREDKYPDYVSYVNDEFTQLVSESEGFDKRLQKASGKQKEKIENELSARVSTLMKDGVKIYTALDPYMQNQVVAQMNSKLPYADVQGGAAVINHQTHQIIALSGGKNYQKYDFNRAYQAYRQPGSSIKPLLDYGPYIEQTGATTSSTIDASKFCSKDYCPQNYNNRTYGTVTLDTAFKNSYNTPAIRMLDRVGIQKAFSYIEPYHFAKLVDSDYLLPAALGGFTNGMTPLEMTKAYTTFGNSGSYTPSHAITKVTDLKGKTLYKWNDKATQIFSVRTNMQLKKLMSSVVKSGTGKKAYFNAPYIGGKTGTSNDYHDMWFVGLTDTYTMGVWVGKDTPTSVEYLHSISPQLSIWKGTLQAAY

Turning to `CC(C)(O/N=C(\C(=O)N[C@@H]1C(=O)N2C(C(=O)[O-])=C(C[n+]3ccccc3)CS[C@H]12)c1csc(N)n1)C(=O)O` [CTZ, ceftazidime, reference compound], the MIC is 8 µg/mL in experiment [1] (Bacillus subtilis, DSM10, B. subtilis DSM 10, median (n = 3), read-out: MIC); over 2050 µg/mL in experiment [2] (Enterococcus casseliflavus, ATCC700327, E. casseliflavus ATCC 700327, median (n = 3), read-out: MIC); 2 µg/mL in experiment [3] (Escherichia coli, E. coli Tü20‐025, median (n = 3), read-out: MIC); 4 µg/mL in [4] (Enterococcus faecalis, ATCC29212, E. faecalis ATCC 29212, median (n = 3), read-out: MIC); 0.125 µg/mL in experiment [5] (Klebsiella pneumoniae); 16 µg/mL in experiment [6] (Staphylococcus aureus, S. aureus ATCC 25923 (MSSA), median (n = 3), read-out: MIC). Moreover, the MIC in [7] (Staphylococcus aureus, S. aureus NCTC 10442 (MRSA), median (n = 3), read-out: MIC) stood at 16 µg/mL; in experiment [8] (Staphylococcus saprophyticus, ATCC15305, S. saprophyticus ATCC 15305, median (n = 3), read-out: MIC) it was 32 µg/mL. Moreover, the MIC range in experiment [9] (CTZ‐resistant P. aeruginosa (n = 2)) is 32 to 64 µg/mL. Moreover, the “binding to PBP1A/B” value in experiment [10] was “strong binding”. The “binding to PBP2B” value in [11] was “strong binding”. The “binding to PBP4” value in [12] is on record as “strong binding”.
As to `CC(C)(O/N=C(\C(=O)N[C@@H]1C(=O)N2C(C(=O)[O-])=C(C[n+]3ccccc3)CS[C@H]12)c1csc(N)n1)C(=O)NCCCCCCN1C(=O)CC(SC[C@H](NC(=O)[C@H](CCCNC(=N)N)NC(=O)[C@H](CCCNC(=N)N)NC(=O)[C@H](CCCNC(=N)N)NC(=O)[C@H](CCCNC(=N)N)NC(=O)[C@H](CCCNC(=N)N)NC(=O)[C@@H](N)CCCNC(=N)N)C(N)=O)C1=O` (stereo partly drawn) [CTZ-R6], the MIC in experiment [1] (DSM 10, 20 h) is 0.008 µg/mL; in [2] (ATCC 700327, 20 h) it was 0.25 µg/mL; in experiment [3] (Tü20‐025 (clinical isolate, 20 h)) it was 0.5 µg/mL; in experiment [4] (ATCC 29212, 20 h) it was under 0.004 µg/mL; in experiment [5] (Tü20‐036 (clinical isolate, 20 h)) it was 0.0625 µg/mL; in experiment [6] (ATCC 25923, 20 h), 4 µg/mL. Further, the MIC was 2 µg/mL in [7] (NCTC 10442, 20 h) and 0.02 µg/mL in experiment [8] (ATCC 15305, 20 h). For the same compound, in experiment [9] (CTZ‐resistant (n = 2, 20 h)), the MIC range was in the range of 2 to 16 µg/mL. Moreover, the “binding to PBP1A/B” value in experiment [10] is given as “decreased in comparison to CTZ”. The “binding to PBP2B” value in [11] was “showed affinity”. Also, the “binding to PBP4” value in experiment [12] was “decreased in comparison to CTZ”.
